Source: patent publication US20070027130A1, “Tricyclic 6-alkylidene-penem beta-lactamase inhibitors and beta-lactam antibiotic combination: a broad spectrum antibiotic” (priority 2005, published 2007)
In brackets after ≈: the same amount, converted by molar mass.

Legend:
Assay in all cases: MIC microbroth dilution
Assay type in all cases: cell-based
[1] = test system: K. pn GC 3104 (MIR-1 + TEM-1); conditions: Klebsiella pneumoniae, β-lactamase class A, C, MHBII, 35° C. 18 hr, read-out: Minimal Inhibitory Concentration
How it was run: (§1)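 Antibiotics were serially diluted in Mueller-Hinton II broth following the NCCLS microdilution standard, inoculated, then held at 35 C in ambient air for 18-22 hours.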

E. coli GC 2920 (IRT-2) = conditions: Escherichia coli, β-lactamase class A (IRT), MHBII, 35° C. 18 hr, read-out: Minimal Inhibitory Concentration
How it was run: as §1

E. coli GC 1807 OXA-7 = conditions: Escherichia coli, GC1807OXA7, β-lactamase class D, MHBII, 35° C. 18 hr, read-out: Minimal Inhibitory Concentration
How it was run: as §1

K. pn GC 1516 (TEM-26) = conditions: Klebsiella pneumoniae, β-lactamase class A (ESBL), MHBII, 35° C. 18 hr, read-out: Minimal Inhibitory Concentration
How it was run: as §1

E. coli GC 2009 (TEM-10) = conditions: Escherichia coli, 18 h, read-out: Minimal Inhibitory Concentration
How it was run: as §1

[2] = test system: E. coli GC 2149 (ACT-1; TEM-1 + pl 5.6); conditions: Escherichia coli, β-lactamase class A, A (ESBL), C, MHBII, 35° C. 18 hr, read-out: Minimal Inhibitory Concentration
How it was run: as §1

[3] = test system: E. cloacae GC 6991 (AmpC); conditions: Enterobacter cloacae, β-lactamase class C, MHBII, 35° C. 18 hr, read-out: Minimal Inhibitory Concentration
How it was run: as §1

[4] = test system: E. coli GC 2295 TEM-1 + AmpC; conditions: Escherichia coli, β-lactamase class A, C, MHBII, 35° C. 18 hr, read-out: Minimal Inhibitory Concentration
How it was run: as §1

E. coli GC 1995 (TEM-10) = conditions: Escherichia coli, β-lactamase class A (ESBL), MHBII, 35° C. 18 hr, read-out: Minimal Inhibitory Concentration
How it was run: as §1

[5] = test system: K. pneumoniae GC 7635 SHV-1, KPC2; conditions: Klebsiella pneumoniae, β-lactamase class A, A (Cb'ase), MHBII, 35° C. 18 hr, read-out: Minimal Inhibitory Concentration
How it was run: as §1

K. pn GC 1830 (SHV-2) = conditions: Klebsiella pneumoniae, β-lactamase class A (ESBL), MHBII, 35° C. 18 hr, read-out: Minimal Inhibitory Concentration
How it was run: as §1

CO/N=C(\C(=O)N[C@@H]1C(=O)N2C(C(=O)[O-])=C(C[N+]3(C)CCCC3)CS[C@H]12)c1csc(N)n1 [Cefepime]
MIC [1]: 1 µg/mL (≈ 2.08 µM) | MIC (E. coli GC 2920 (IRT-2)): 0.06 µg/mL (≈ 0.125 µM) | MIC (E. coli GC 1807 OXA-7): 0.12 µg/mL (≈ 0.25 µM) | MIC (K. pn GC 1516 (TEM-26)): > 16 µg/mL | MIC (E. coli GC 2009 (TEM-10)): > 16 µg/mL | MIC [2]: 16 µg/mL (≈ 33.3 µM) | MIC [3]: 0.5 µg/mL (≈ 1.04 µM) | MIC [4]: 0.5 µg/mL (≈ 1.04 µM) | MIC (E. coli GC 1995 (TEM-10)): > 16 µg/mL | MIC [5]: > 16 µg/mL | MIC (K. pn GC 1830 (SHV-2)): 2 µg/mL (≈ 4.16 µM)
